Test results from patent publication US4775680A, “Cyclohept[b]indolealkanoic acids, pharmaceutical compositions and use” (Merck & Co., Inc., priority 1987, dated 1988).

Assays:
human platelets = assay: Inhibition of U44069-induced threshold aggregation of human platelets; type: cell-based; settings: compound A versus compound 1; compound B versus compound 3
Protocol: INHIBITION OF INDUCED THRESHOLD AGGREGATION OF HUMAN PLATELETS
Human platelet rich plasma (PRP) is prepared from venous blood of male volunteers who have taken no medication for ten days prior to test. Blood is transferred into plastic centrifuge tubes containing 3.8% Trisodium Citrate in 0.9% NaCl (in a ratio of blood to anticoagulant of 9:1), mixed by gentle inversion, and centrifuged at room temperature for ten minutes at 116 g. The supernatant (PRP) is transferred into plastic tubes. Platelet poor plasma (PPP) is obtained by centrifuging the residual blood cells at 4000 g for ten minutes. PRP is left to stand at least one half hour prior to testing.
Platelet Aggregation is measured using a Payton Aggregometer and Recorder. […]
The threshold (approximately 20-30% of maximum) aggregation concentration of the agonist to be used is first determined in the presence of the drug vehicle (control). […]
The height of the aggegation response (measured in divisions of the recorder paper, 1 division=2.5 mm) in the presence of the drug is recorded, and calculated as percent inhibition of the mean height of the control threshold responses. […]

[1] = target: T1, guinea pig tracheal chain (Cavia porcellus, UniProt A0A286Y4I8); assay: Estimation of pA2 values in guinea pig tracheal chain (agonist U-44069); type: cell-based, guinea pig (male albino Hartley strain); settings: for Kb: logarithmic scale, agonist U-44069, guinea pig tracheal chain
T1 construct: The trachea was removed, freed of extraneous tissue and sectioned into rings; from tissue; host or cells: guinea pig trachea (male albino Hartley strain)
T1 sequence (A0A286Y4I8 1-347): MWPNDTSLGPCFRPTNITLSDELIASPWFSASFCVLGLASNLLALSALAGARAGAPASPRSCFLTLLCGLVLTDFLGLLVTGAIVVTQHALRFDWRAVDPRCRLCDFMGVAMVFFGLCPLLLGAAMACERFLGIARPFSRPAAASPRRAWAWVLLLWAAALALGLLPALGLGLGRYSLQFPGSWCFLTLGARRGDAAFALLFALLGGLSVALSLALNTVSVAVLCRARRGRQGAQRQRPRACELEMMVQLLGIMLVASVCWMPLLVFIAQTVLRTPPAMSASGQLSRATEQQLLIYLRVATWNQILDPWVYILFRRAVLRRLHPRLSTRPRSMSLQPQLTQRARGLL
Excerpt: ESTIMATION OF pA2 VALUES IN GUINEA PIG TRACHEAL CHAIN
Male albino Hartley strain guinea pigs (300-350 gm) were sacrificed by a blow to the head and exsanguinated. The trachea was removed, freed of extraneous tissue and sectioned into rings of 1-2 mm thickness. Five rings were tied together in series, ensuring that the tracheal muscle lay in the same vertical plane, and the cartilage of each ring then separated at a point directly opposite the muscle. The chains were suspended under 1 gm resting tension in modified Krebs solution (NaCl, 6.87; NaHCO3, 2.1; dextrose, 2.1; KCl, 0.32; CaCl2, 0.28; MgSO4, 7H2 O, 0.11; KH2 PO4, 0.16; gm/L: equilibrated with 5% CO2 in O2 for 1 hour) containing indomethacin (1.4×10-^5 M) to suppress endogenous protaglandin synthesis, Organ bath temperature was maintained at 37° C. and 5% CO2 in O2 diffused continously. Isometric tension changes were recorded from a Gould-Statham (UTC 2) force displacement transducer connected to a Beckman Type R Dynograph. For assay purposes initial maximal contractions were elicited with a high concentration of the contractile agonist [U-44069, 9.11-dideoxy-9a,11a-epoxymethano PGF2a ] and the tissue subsequently washed at intervals until tension returned to baseline. Agonist dose response curves were obtained using a cumulative-dose schedule (4-8 doses) and the preparations then washed at regular intervals until baseline tension was recorded. After an appropriate interval (1-1.5 hrs) agonist dose response curves were repeated in the presence of antagonist drug concentrations. […] EC50 values were obtained by regression analysis and used to calculate `apparent` and Schild Plot pA2 values by the method of Tallarida and Murray 1981.
In Table 6 below are presented data indicating the prostanoid antagonist activities of compounds of the present invention indicated in Table 1. It is to be noted that pA2 values are on a logarithmic scale, so that, for instance, a difference between two pA2 values of 1 represents a difference in potency by a factor of 10.

Structure (SMILES) | Kb [1] | also measured
COc1ccc2c(c1)c1c(n2Cc2ccc(Cl)cc2)CC(CC(=O)O)CC1 (stereo not drawn) [Compound A, reference compound] | – | potency as an inhibitor of platelet aggregation relative to the seven-membered ring analog (human platelets): seventy times less potent than compound 1; factor corresponding to the pA2 difference from compound 1 ([1]; compound A versus compound 1): 15; pA2 lower than that of compound 1 ([1]; compound A versus compound 1): 1.7 log units
O=C(O)C1CCCc2c(n(Cc3ccc(Cl)cc3)c3ccc(F)cc23)C1 (stereo not drawn) | 129 nM | –
COc1ccc2c(c1)c1c(n2Cc2ccc(Cl)cc2)CC(C(=O)O)CC1 (stereo not drawn) [drawing 27] | 158 nM | –
O=C(O)CC1CCCc2c(n(Cc3ccc(Cl)cc3)c3ccc(F)cc23)C1 (stereo not drawn) | 3.16 nM | –
COc1ccc2c(c1)c1c(n2Cc2ccc(Cl)cc2)CC(C(=O)O)CC1 (stereo not drawn) [Compound B, reference compound] | – | potency as an inhibitor of platelet aggregation relative to the seven-membered ring analog (human platelets): at least four times less potent than the latter; pA2 compared with compound 3, in words ([1]; compound B versus compound 3): slightly lower pA2 value

More lines, main results first:

Kb [1] | Structure (SMILES) | also measured
158 nM | COc1ccc2c(c1)c1c(n2Cc2ccc(Cl)cc2)CC(CC(=O)O)CC1 (stereo not drawn) [drawing 26] | –
42.7 nM | O=C(O)CC1CCCCc2c1c1cc(F)ccc1n2Cc1ccc(Cl)cc1 (stereo not drawn) | –
8.32 nM | CS(=O)(=O)c1ccc(Cn2c3c(c4cc(F)cc(F)c42)CCCC(CC(=O)O)C3)cc1 (stereo not drawn) | –
1.35 nM | O=C(O)CC1CCCCc2c1n(Cc1ccc(Cl)cc1)c1ccc(F)cc21 (stereo not drawn) | –
